In US20250255847A1, “[…]s: Novel Drugs for Triple Negative Breast Cancer” (SIMMARON RSEARCH INC, priority 2024, published 2025):

System: STAT3-dependent tumor-promoting genes
Experiment: cDNA-based gene array of 66 STAT3-dependent genes in MDA-MB-468 cells
Format: cell-based, human
Conditions: 10 nM doses, EGF-stimulated MDA-MB-468
Procedure: FIG. 10 illustrates an embodiment of the present invention and illustrates SIM-1 and SIM-2 inhibit expressions of IL6, RANTES, and other STAT3-dependent tumor promoting genes and proteins. (A) A gene array of STAT3 dependent 66 genes (listed in Table 1) was performed in mRNA samples of MDA-MB-468 cells. Realtime PCR plate coated with 66 primer sets of STAT3-dependent genes was run for four conditions including control, EGF (25 ng/mL), EGF+SIM-1 (10 nM) and EGF+SIM-2 (10 nM). The resultant Ct value was normalized with four different housekeeping genes, and then summarized with a heatmap analyses drawn in Morpheus server of Broad Institute. […] (C) The cloning of STAT3 response element of IL6 promoter upstream of GFP reporter was performed by GeneCopoea genome editing service (Rockville, MD). The bit score map and sequence of consensus STAT3 response element or SEQ ID NO: 2 was shown below. […] After that live cells were recorded at Ex:Em=485/535 nm wavelength for GFP activity. […] (G) The GFP reporter activity was measured where the scrambled gene was cloned upstream of eGFP reporter. […]
Gene array. […] After that, mRNA was isolated using the Gene Jet RNA purification kit (Cat. #K0732), quantified by Bio-Rad Smart Spec™ plus spectrophotometer, converted to cDNA by GoScript™ CDNA synthesis kit, as per the manufacturer's instructions. […]

| SMILES | expressions of tumor-promoting factors, inflammatory cytokine, metastatic and anti-apoptotic genes (AKT, IL6, RANTES, MMPs, Cyclin D1, Bcl-2 etc.) |
| --- | --- |
| O=C(O)CCC(=O)NCc1csc2ccc(Cl)cc12 [SIM-1, 4-[(5-chloro-1-benzothiophen-3-yl)methylamino]-4-oxobutanoic acid] | strongly attenuated |
| CCOC(=O)c1c(NC(C)=O)sc2c(Cl)c(/C=N/O)ccc12 [SIM-2, ethyl 2-acetamido-7-chloro-6-(hydroxyiminomethyl)-1-benzothiophene-3-carboxylate] | strongly attenuated |
